Data: US20150336999A1, “PROCESS FOR THE PRODUCTION OF SOPHOROSE STARTING FROM SOPHOROLIPIDS” (IFP ENERGIES NOUVELLES, priority 2012, published 2015)
“And” between values parts separate entries of the source, which are not always exact repeats. Identical values can stand only once.

Tests used:
[1] = test system: T. reesei CL847; experiment: Fed-batch cellulase production by T. reesei CL847 with sugar mixture containing inducing sugar; specific rate of protein production; format: cell-based, Trichoderma reesei; details: for specific protein production rate: fed-batch 166 h, 30° C.
Protocol: After growing cells of T. reesei CL847 (Durand H. et al. (1988a) Classical and molecular genetics applied to Trichoderma reesei for the selection of improved cellulolytic industrial strains. In: FEMS Symposium n° 43: Biochemistry and Genetics of Cellulose Degradation, p. 135-151. Academic Press, London) on glucose in stirred flasks up to the exhaustion of the glucose, cellulase production was carried out using a “fed-batch” process employing a solution the composition of which was as follows: 50 g/L of a mixture of sugars and 15 mL/L of 20% by weight NH3 as described in the publication “A new stoichiometric miniaturization strategy for screening of industrial microbial strains: application to cellulase hyper-producing Trichoderma reesei strains”, Microbial Cell Factories 2012, 11:70.
The mixture of sugars used contained (100−x)% by weight of glucose and x% by weight of inducing sugar:
in the first case (control), the inducing sugar was lactose at a quantity of x=8%
in the second, third and fourth cases, the inducing sugar was sophorose from the hydrolysate obtained in Example 3 which had been supplemented with pure glucose in order to have x=8%, x=0.3% and x=0.03% respectively.
The fed-batch process was carried out for 166 hours with a solution supply flow rate of 0.3 mL/h and at a temperature of 30° C.
Daily samples were taken in order to monitor the concentration of cells and the concentration of proteins. The induction capacity of the mixture of sugars used for the fed-batch process was expressed as the specific rate of protein production (mg of proteins produced per gram of producer cells per hour).

[2] = test system: cellulolytic Trichoderma reesei system; details: known from the prior art (Mandels et al. 1962); cited from earlier work
[3] = inducing sugar x=8% by weight of sugar mixture (rest glucose)

Row | SMILES | specific protein production rate [1, 3] | induction relative to the mixture containing lactose at the same concentration ([1]; 8% sophorose versus 8% lactose) | specific protein production rate ([1]; inducing sugar x=0.03% by weight of sugar mixture (rest glucose)) | specific protein production rate ([1]; inducing sugar x=0.3% by weight of sugar mixture (rest glucose)) | inducer of the cellulolytic Trichoderma reesei system [2]
1 | OC[C@H]1O[C@@H](O[C@H]2[C@H](O)[C@@H](O)C(O)O[C@@H]2CO)[C@H](O)[C@@H](O)[C@H]1O (stereo partly drawn) [lactose, reference compound] | 6.4 mg/g/h and ~6 mg/g/h |  |  |  | 
2 | O=C[C@H](O[C@@H]1O[C@H](CO)[C@@H](O)[C@H](O)[C@H]1O)[C@@H](O)[C@H](O)[C@H](O)CO [sophorose, 2-O-β-D-glucopyranosyl-D-glucose] | 12 mg/g/h | approximately twice as high | ~6 mg/g/h | 10.5 mg/g/h | very good inducer
